pKi: −log10 of the molar value.
What was measured:
5-HT1A receptors = biological target: T1, 5-HT1A receptors (Rattus norvegicus, UniProt P19327); experiment: inhibition of [3H]8-OH-DPAT binding to 5-HT1A receptors in rat hippocampal tissue; conditions: rat hippocampus; for pKi: [3H]8-OH-DPAT 2 nM, 25° C., 30 min; for inhibition at 1 µM: at 10^-6 M, [3H]8-OH-DPAT, read-out: % displacement of radio ligand, 5-HT1A
T1 construct: Hippocampal tissue from the brains of male Sprague-Dawley rats; from tissue; host or cells: rat hippocampus membranes
T1 sequence (P19327 1-422): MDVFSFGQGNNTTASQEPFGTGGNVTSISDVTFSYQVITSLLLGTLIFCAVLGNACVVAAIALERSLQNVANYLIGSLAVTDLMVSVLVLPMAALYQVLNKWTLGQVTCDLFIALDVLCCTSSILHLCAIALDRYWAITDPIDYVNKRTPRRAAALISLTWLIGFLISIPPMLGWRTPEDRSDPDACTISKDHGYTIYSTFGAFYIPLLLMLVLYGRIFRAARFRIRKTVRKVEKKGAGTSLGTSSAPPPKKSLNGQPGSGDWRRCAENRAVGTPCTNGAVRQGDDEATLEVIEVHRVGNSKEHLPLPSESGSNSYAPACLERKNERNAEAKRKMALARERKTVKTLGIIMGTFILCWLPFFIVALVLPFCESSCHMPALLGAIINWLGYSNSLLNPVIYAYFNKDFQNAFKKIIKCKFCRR
Description: Hippocampal tissue from the brains of male Sprague-Dawley rats (Charles River; weight range 150-250 g) was homogenised in ice-cold 50 mM Tris-HCl buffer (pH 7.7 when measured at 25° C., 1:40 w/v) and centrifuged at 30,000 g at 4° C. for 10 minutes. The pellet was rehomogenised in the same buffer, incubated at 37° C. for 10 minutes and centrifuged at 30,000 g at 4° C. for 10 minutes. The final pellet was resuspended in 50 mM Tris-HCl buffer (pH 7.7) containing 4 mM CaCl2, 0.1% L-ascorbic acid and 10 μM pargyline hydrochloride (equivalent to 6.25 mg wet weight of tissue/ml) and used immediately in the binding assay. Aliquots (400 μl; equivalent to 2.5 mg wet weight of tissue/tube) of this suspension were added to tubes containing the ligand (50 μl; 2 nM) and distilled water (50 μl total binding) or 5-HT (50 μl; 10 μM; non-specific binding) or test compound (50 μl; at a single concentration of 10^-6 M or at 10 concentrations ranging from 10^-11 -10^-3 M). The ligand was [^3 H]8-hydroxy-2-(dipropylamino)tetralin ([^3 H]8-OH-DPAT) and the mixture was incubated at 25° C. for 30 minutes before the incubation was terminated by rapid filtration.
(§1) The filters were washed with ice-cold Tris-HCl buffer and dried. The filters were punched out into vials, scintillation fluid added and radioactivity determined by liquid scintillation counting. The percentage displacement of specific binding of the tritiated ligand was calculated for the single concentration (10^-6 M) of test compound. Displacement curves were then produced for those compounds which displaced ≥50% of specific binding of the tritiated ligand at 10^-6 M using a range of concentrations of the compound. The concentration which gave 50% inhibition of specific binding (IC50) was obtained from the curve. The inhibition coefficient Ki was then calculated using the formula [formula] in which [ligand] is the concentration of the tritiated ligand used and KD is the equilibrium dissociation constant for the ligand.

D2 dopamine receptors = biological target: T2, D2 dopamine receptors (Rattus norvegicus, UniProt P61169); experiment: inhibition of tritiated (S)-sulpiride binding to D2 dopamine receptors in rat striatal tissue; conditions: rat striatum; for pKi: tritiated (S)-sulpiride 1 nM, 4° C., 40 min; for inhibition at 1 µM: at 10^-6 M, tritiated (S)-sulpiride, read-out: % displacement of radio ligand, D2
T2 construct: Striatal tissue from the brains of male Charles River CD rats; from tissue; host or cells: rat striatum membranes
Description: Striatal tissue from the brains of male Charles River CD rats weighing between 140-250 g were homogenised in ice-cold 50 mM Tris-HCl buffer (pH 7.7 when measured at 25° C.) and centrifuged at 40,000 g for 10 minutes. The pellet was resuspended in Tris salts buffer (50 mM Tris-HCl buffer containing 120 mM NaCl, 5 mM KCl, 2 mM CaCl2 and 1 mM MgCl2 with the addition of 6 mM ascorbic acid; pH 7.7 when measured at 25° C.), and again centrifuged at 40,000 g for 10 minutes. The final pellet was stored at -80° C. Before each test the pellet was resuspended in Tris salts buffer (equivalent to 2 mg wet weight of tissue/ml). Aliquots (720 μl; equivalent to 1.44 mg wet weight of tissue/tube) of this suspension were then added to tubes containing the ligand (40 μl; 1 nM) and Tris salts buffer (40 μl; total binding) or spiroperidol (40 μl; 10 nM; non-specific binding) or test compound (40 μl; at a single concentration of 10^-6 M or at 6 concentrations ranging from 10^-11 -10^-4 M). The ligand was tritiated (S)-sulpiride and the mixture was incubated at 4° C. for 40 minutes before the incubation was terminated by rapid filtration.
The filters were washed with ice-cold Tris-HCl buffer and dried. The filters were punched out in to vials, scintillation fluid added and were left for about 20 hours before being counted by scintillation spectrophotometry. The percentage displacement of specific binding of the tritiated ligand was calculated for the single concentration (10^-6 M) of test compound. Displacement curves were then produced over a range of concentrations for those compounds which displaced ≥50% of specific binding of the tritiated ligand at 10^-6 M. The concentration which gave a 50% inhibition of specific binding (IC50) was obtained from the curve. The inhibition coefficient Ki was then calculated using the formula [formula] in [ligand] is the concentration of the tritiated ligand used and KD is the 2 equilibrium dissociation constant for the ligand.

α1-adrenoceptors = experiment: inhibition of [7-methoxy-3H]prazosin binding to α1-adrenoceptors in rat whole cortical tissue; conditions: rat whole cortex, 30 min; for pKi: [7-methoxy-3H]prazosin 0.1 nM, 30° C.; for % displacement of radio ligand, α1: at 10^-6 M, [7-methoxy-3H]prazosin, 1 µM
Description: Whole cortical tissue from the brains of male Charles River CD rats weighing between 150-250 g were homogenised in ice-cold 50 mM Tris-HCl, pH 7.6 (at 25° C.; 1:40 w/v) and centrifuged at 1000 g at 4° C. for 10 minutes. The supernatant was centrifuged at 30,000 g at 4° C. for 10 minutes. The pellet was rehomogenised in 50 mM Tris-HCl, pH 7.6 (1:40 w/v) and centrifuged at 30,000 g at 4° C. for 10 minutes. The final pellet was resuspended in 50 mM Tris-HCl, pH 7.6 (equivalent to 12.5 mg wet weight of tissue/ml) and used immediately in the binding assay. Aliquots (400 μl; equivalent to 5 mg wet weight of tissue/tube) of this suspension were added to tubes containing the ligand (50 μl; 0.1 nM) and distilled water (50 μl; total binding) or phentolamine (50 μl; 5 μM; non-specific binding) or test compound (50 μl; at a single concentration of 10^-6 M or at 10 concentrations ranging from 10^-11 -10^-3 M). The ligand was [7-methoxy-^3 H]prazosin and the mixture was incubated at 30° C. for 30 minutes before the incubation was terminated by rapid filtration.
as §1

T2 sequence (P61169 whole entry): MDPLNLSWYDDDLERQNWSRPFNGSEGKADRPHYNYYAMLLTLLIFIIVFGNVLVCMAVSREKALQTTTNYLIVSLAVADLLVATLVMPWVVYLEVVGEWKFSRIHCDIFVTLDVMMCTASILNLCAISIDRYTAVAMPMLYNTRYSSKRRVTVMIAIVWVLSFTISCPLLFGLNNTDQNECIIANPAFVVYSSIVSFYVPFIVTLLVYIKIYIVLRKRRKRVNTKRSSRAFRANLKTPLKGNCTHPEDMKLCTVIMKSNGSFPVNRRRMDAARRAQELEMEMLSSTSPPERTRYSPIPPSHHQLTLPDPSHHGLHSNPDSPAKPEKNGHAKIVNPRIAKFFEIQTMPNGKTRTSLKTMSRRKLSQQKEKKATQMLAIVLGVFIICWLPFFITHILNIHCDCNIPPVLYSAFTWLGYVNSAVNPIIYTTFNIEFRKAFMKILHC

SMILES | pKi (5-HT1A receptors) | pKi (D2 dopamine receptors) | pKi (α1-adrenoceptors) | inhibition at 1 µM (5-HT1A receptors) | inhibition at 1 µM (D2 dopamine receptors) | % displacement of radio ligand, α1 (α1-adrenoceptors)
Nc1ncccc1C(=O)N1CCC(CNCC2COc3ccc(Cl)cc3O2)CC1 (racemic) [Example 19, 1-(2-aminonicotinoyl)-4-[N-(7-chloro-1,4-benzodioxan-2-ylmethyl)aminomethyl]piperidine] | 7.52 | 7.94 | 7.31 |  |  | 
Nc1ncccc1C(=O)NCC1CCN(C[C@H]2COc3ccc(Br)cc3O2)CC1 [Example 21, (S)-2-amino-N-{[1-(7-bromo-1,4-benzodioxan-2-ylmethyl)-4-piperidyl]methyl}pyridine-3-carboxamide] | 7.46 | 7.74 | 7.00 |  |  | 
O=C(NCC1CCN(C[C@H]2COc3cccc(Cl)c3O2)CC1)c1cccnc1 [Example 24, (S)-N-{[1-(8-chloro-1,4-benzodioxan-2-ylmethyl)-4-piperidyl]methyl}pyridine-3-carboxamide] | 7.47 | 7.80 | 8.05 |  |  | 
Cc1cccc(C(=O)NCC2CCN(C[C@H]3COc4ccc(Cl)cc4O3)CC2)n1 [Example 25, (S)-N-{[1-(7-chloro-1,4-benzodioxan-2-ylmethyl)-4-piperidyl]methyl}-6-methylpyridine-2-carboxamide] | 7.33 | 7.48 | 6.63 |  |  | 
COc1ncccc1C(=O)NCC1CCN(C[C@H]2COc3ccc(Cl)cc3O2)CC1 [Example 26, (S)-N-{[1-(7-chloro-1,4-benzodioxan-2-ylmethyl)-4-piperidyl]methyl}-2-methoxypyridine-3-carboxamide] | 8.15 | 7.37 | 6.89 |  |  | 
Nc1ncccc1C(=O)NCC1CCN(C[C@H]2COc3ccc(F)c(F)c3O2)CC1 [Example 27, (S)-2-amino-N-{[1-(7,8-difluoro-1,4-benzodioxan-2-ylmethyl)4-piperidyl]methyl}pyridine-3-carboxamide] |  |  |  | 90% | 99.9% | 68%
Nc1ncccc1C(=O)NCC1CCN(C[C@H]2COc3cccc(OS(=O)(=O)C(F)(F)F)c3O2)CC1 [Example 28, (S)-2-amino-N-{[1-(8-trifluoromethanesulphonyloxy-1,4-benzodioxan-2-ylmethyl)-4-piperidyl]methyl}pyridine-3-carboxamide] |  |  |  | 96% | 101% | 98%
O=C(c1ccccn1)N1CCC(CNC[C@H]2COc3ccc(Cl)cc3O2)CC1 [Example 29, 4-[N-(7-chloro-1,4-benzodioxan-2-ylmethyl)aminomethyl]-1-(2-pyridylcarbonyl)piperidine] |  |  |  | 95% |  | 85%
Cc1ccc2c(c1)O[C@@H](CN1CCC(CNC(=O)c3cccnc3)CC1)CO2 [Example 30, (S)-N-{[1-(7-methyl-1,4-benzodioxan-2-ylmethyl)-4-piperidyl]methyl}pyridine-3-carboxamide] |  |  |  | 78% | 85% | 61%
Cc1ccc2c(c1)O[C@@H](CN1CCC(CNC(=O)c3cccnc3C)CC1)CO2 [Example 31, (S)-2-methyl-N-{[1-(7-methyl-1,4-benzodioxan-2-ylmethyl)-4-piperidyl]-methyl}pyridine-3-carboxamide] |  |  |  | 63% | 68% | 41%
Cc1ccc2c(c1)O[C@@H](CN1CCC(CNC(=O)c3ccc(-n4cccc4)nc3)CC1)CO2 [Example 32, (S)-N-{[1-(7-methyl-1,4-benzodioxan-2-ylmethyl)-4-piperidyl]methyl}-6-(1-pyrrolyl)pyridine-3-carboxamide] |  |  |  | 92% | 80% | 71%
CSc1ncccc1C(=O)NCC1CCN(C[C@H]2COc3ccc(C)cc3O2)CC1 [Example 33, (S)-N-{[1-(7-methyl-1,4-benzodioxan-2-ylmethyl)-4-piperidyl]methyl}-2-(methylthio)pyridine-3-carboxamide] |  |  |  | 81% | 81% | 41%
Cc1ccc2c(c1)O[C@@H](CN1CCC(CNC(=O)c3cncc(Br)c3)CC1)CO2 [Example 34, (S)-5-bromo-N-{[1-(7-methyl-1,4-benzodioxan-2-ylmethyl)-4-piperidyl]-methyl}pyridine-3-carboxamide] |  |  |  | 87% | 86% | 68%
O=C(NCC1CCN(C[C@H]2COc3ccc(Br)cc3O2)CC1)c1cccnc1 [Example 35, (S)-N-{[1-(7-bromo-1,4-benzodioxan-2-ylmethyl)-4-piperidyl]methyl}pyridine-3-carboxamide] |  |  |  | 95% | 101% | 73%
Cc1ncccc1C(=O)NCC1CCN(C[C@H]2COc3ccc(Br)cc3O2)CC1 [Example 36, (S)-N-{[1-(7-bromo-1,4-benzodioxan-2-ylmethyl)-4-piperidyl]methyl}-2-methylpyridine-3-carboxamide] |  |  |  | 80% | 98% | 54%
O=C(NCC1CCN(C[C@H]2COc3ccc(Br)cc3O2)CC1)c1ccc(-n2cccc2)nc1 [Example 37, (S)-N-{[1-(7-bromo-1,4-benzodioxan-2-ylmethyl)-4-piperidyl]methyl}-6-(1-pyrrolyl)pyridine-3-carboxamide] |  |  |  | 85% | 97% | 66%
